Data from ChEMBL document CHEMBL1201862, “PubChem BioAssay data set” (2004).
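Tested at 5 concentrations; 48 h exposure; 96-well plates; endpoints linearly interpolated, else capped at highest concentration. GI50: concentration for 50% inhibition of growth.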 Activity calls are given as the source filed them. Rule as the data show it: active = GI50 up to about 1.1 µM and inactive = higher.

Columns and labels:
Test in all cases: inhibition of tumour cell growth, NCI panel, 48 h
[1] = test system: U-251
[2] = test system: Malme-3M
[3] = test system: K562
[4] = test system: NCI-H226
[5] = test system: ACHN
[6] = test system: HCT-15
[7] = test system: UACC-62
[8] = test system: SK-MEL-5
[9] = test system: KM12
[10] = test system: SF-295
[11] = test system: COLO 205
[12] = test system: OVCAR-8
[13] = test system: UO-31
[14] = test system: A549
[15] = test system: OVCAR-5
[16] = test system: 786-0
[17] = test system: CCRF-CEM
[18] = test system: LOX IMVI
[19] = test system: RXF 393

Structure (SMILES) | GI50 [1] | GI50 [2] | GI50 [3] | GI50 [4] | GI50 [5] | GI50 [6] [µM] | GI50 [7] | GI50 [8] | GI50 [9] | GI50 [10] | GI50 [11] | GI50 [12] | GI50 [13] | GI50 [14] | GI50 [15] | GI50 [16] | GI50 [17] | GI50 [18] | GI50 [19]
COc1ccc(/N=N/c2c(-c3ccccc3)nn(C(=O)CC(=O)Nc3ccc(OC)cc3)c2-c2ccccc2)cc1 | 58.3 µM (inactive) | > 100 µM (inactive) | 27 µM (inactive) | > 100 µM (inactive) | 97.3 µM (inactive) | > 100 | 42.1 µM (inactive) | > 100 µM (inactive) | > 100 µM (inactive) | 21.1 µM (inactive) | > 100 µM (inactive) | > 100 µM (inactive) | > 100 µM (inactive) | > 100 µM (inactive) | > 100 µM (inactive) | 48.6 µM (inactive) | 23.7 µM (inactive) | > 100 µM (inactive) | –
COc1ccc2oc(C(=O)O)c3c2c1CCC3 | > 100 µM (inactive) | – | > 100 µM (inactive) | – | > 100 µM (inactive) | > 100 | > 100 µM (inactive) | > 100 µM (inactive) | – | > 100 µM (inactive) | > 100 µM (inactive) | > 100 µM (inactive) | – | > 100 µM (inactive) | – | > 100 µM (inactive) | > 100 µM (inactive) | > 100 µM (inactive) | > 100 µM (inactive)
CCCCNC(=S)Nc1nc(C(=O)NNS(=O)(=O)c2ccccc2)cs1 | 39.5 µM (inactive) | 28.9 µM (inactive) | 49.1 µM (inactive) | > 10 µM (inactive) | 28.7 µM (inactive) | 36.2 | 22.9 µM (inactive) | 17 µM (inactive) | 39.7 µM (inactive) | 36.2 µM (inactive) | 17.9 µM (inactive) | 33.7 µM (inactive) | 26.1 µM (inactive) | 40.3 µM (inactive) | 42 µM (inactive) | > 100 µM (inactive) | 44.3 µM (inactive) | 19.4 µM (inactive) | –
O=Cc1ccccc1B(O)O | 30.7 µM (inactive) | – | 23.1 µM (inactive) | > 100 µM (inactive) | 19.1 µM (inactive) | 62.7 | 31.5 µM (inactive) | – | > 100 µM (inactive) | > 100 µM (inactive) | 14.7 µM (inactive) | 67.8 µM (inactive) | 54.1 µM (inactive) | 12.7 µM (inactive) | 87.5 µM (inactive) | 43.4 µM (inactive) | 6.34 µM (inactive) | 20.7 µM (inactive) | 15.7 µM (inactive)
O=C1/C(=C/c2ccccc2)CNC/C1=C\c1ccccc1 | 0.36 µM (active) | 3.26 µM (inactive) | 0.52 µM (active) | 2.42 µM (inactive) | 2.05 µM (inactive) | 0.612 | 1.76 µM (inactive) | 1.91 µM (inactive) | 0.962 µM (active) | 2.07 µM (inactive) | 1.58 µM (inactive) | 1.71 µM (inactive) | 2.02 µM (inactive) | 2.28 µM (inactive) | 2.44 µM (inactive) | 1.57 µM (inactive) | 1.37 µM (inactive) | 0.643 µM (active) | –
NC(=O)CCC(Nc1c2ccccc2[n+]([O-])c2ccccc12)C(=O)O (stereo not given) | > 100 µM (inactive) | 32.7 µM (inactive) | 37.8 µM (inactive) | 64.6 µM (inactive) | 36.6 µM (inactive) | 46.7 | 51.3 µM (inactive) | 32 µM (inactive) | > 100 µM (inactive) | > 100 µM (inactive) | 49.1 µM (inactive) | 63 µM (inactive) | 58.3 µM (inactive) | > 100 µM (inactive) | > 100 µM (inactive) | > 100 µM (inactive) | 42.5 µM (inactive) | 49 µM (inactive) | –
C/C(=N\NS(=O)(=O)c1c(C)cc(C)cc1C)c1ccc[n+]([O-])n1 | 41.7 µM (inactive) | – | 4.44 µM (inactive) | – | 14.2 µM (inactive) | 14.7 | 16.4 µM (inactive) | 41.9 µM (inactive) | 38.5 µM (inactive) | 62.2 µM (inactive) | – | 19.6 µM (inactive) | 21.2 µM (inactive) | 65.2 µM (inactive) | 26.8 µM (inactive) | 14.3 µM (inactive) | 3.96 µM (inactive) | – | –
CC(Nc1ccc(S(=O)(=O)NC(=N)N)cc1)c1c2ccccc2nc2ccccc12 (stereo not given) | 31.6 µM (inactive) | 22.4 µM (inactive) | 27.6 µM (inactive) | 19.6 µM (inactive) | 24.7 µM (inactive) | 29.2 | > 10 µM (inactive) | – | 34.8 µM (inactive) | 35.2 µM (inactive) | 57.7 µM (inactive) | 23.9 µM (inactive) | 19 µM (inactive) | 31.4 µM (inactive) | 20.2 µM (inactive) | 36 µM (inactive) | 19.3 µM (inactive) | 28 µM (inactive) | 26.9 µM (inactive)
C/C=C/C=C\C(=O)C1c2cccc(O)c2C(=O)c2c(O)cc(C)cc21 (stereo not given) | 0.446 µM (active) | 1.68 µM (inactive) | 0.356 µM (active) | 1.11 µM (active) | 1.35 µM (inactive) | 1.76 | – | 1.39 µM (inactive) | 0.425 µM (active) | 0.957 µM (active) | 1.64 µM (inactive) | 1.81 µM (inactive) | 1.71 µM (inactive) | 0.719 µM (active) | 1.82 µM (inactive) | 2.03 µM (inactive) | 1.27 µM (inactive) | 1.79 µM (inactive) | 1.37 µM (inactive)
O=C1c2ccccc2CC1C1(O)C(=O)Nc2ccccc21 (stereo not given) | – | > 100 µM (inactive) | > 100 µM (inactive) | > 100 µM (inactive) | > 100 µM (inactive) | > 100 | > 100 µM (inactive) | > 100 µM (inactive) | – | > 100 µM (inactive) | > 100 µM (inactive) | > 100 µM (inactive) | 34.6 µM (inactive) | > 100 µM (inactive) | > 100 µM (inactive) | > 100 µM (inactive) | – | > 100 µM (inactive) | > 100 µM (inactive)
O=C(CSCC(=O)N/N=C/c1cccc(C(F)(F)F)c1)N/N=C/c1cccc(C(F)(F)F)c1 | – | > 100 µM (inactive) | > 100 µM (inactive) | > 100 µM (inactive) | > 100 µM (inactive) | > 100 | > 100 µM (inactive) | > 100 µM (inactive) | – | > 100 µM (inactive) | – | 2.9 µM (inactive) | > 100 µM (inactive) | – | > 100 µM (inactive) | – | – | > 100 µM (inactive) | > 100 µM (inactive)
C1=Cc2nc1c(-c1ccccc1)c1ccc([n-]1)c(-c1ccccc1)c1nc(c(-c3ccccc3)c3ccc([n-]3)c2-c2ccccc2)C=C1.[Zn+2] | > 100 µM (inactive) | > 100 µM (inactive) | > 100 µM (inactive) | > 100 µM (inactive) | > 100 µM (inactive) | > 100 | > 100 µM (inactive) | > 100 µM (inactive) | > 100 µM (inactive) | > 100 µM (inactive) | > 100 µM (inactive) | > 100 µM (inactive) | > 100 µM (inactive) | > 100 µM (inactive) | > 100 µM (inactive) | > 100 µM (inactive) | > 100 µM (inactive) | > 100 µM (inactive) | –
O=C(O)CCSC(=O)Nc1ccccc1F | > 100 µM (inactive) | – | > 100 µM (inactive) | > 100 µM (inactive) | > 100 µM (inactive) | > 100 | – | – | > 100 µM (inactive) | – | > 100 µM (inactive) | – | > 100 µM (inactive) | > 100 µM (inactive) | > 100 µM (inactive) | > 100 µM (inactive) | > 100 µM (inactive) | > 100 µM (inactive) | > 100 µM (inactive)
Cc1ccc2oc(=O)cc(CC(=O)O)c2c1 | > 100 µM (inactive) | > 100 µM (inactive) | > 100 µM (inactive) | > 100 µM (inactive) | > 100 µM (inactive) | > 100 | > 100 µM (inactive) | > 100 µM (inactive) | > 100 µM (inactive) | > 100 µM (inactive) | > 100 µM (inactive) | > 100 µM (inactive) | – | > 100 µM (inactive) | > 100 µM (inactive) | > 100 µM (inactive) | > 100 µM (inactive) | > 100 µM (inactive) | > 100 µM (inactive)
CCCCCCCCC1C(C)c2c([nH]c3ccccc23)C2C(=O)N(c3ccccc3)C(=O)C21 (stereo not given) | 8.53 µM (inactive) | 19.5 µM (inactive) | 3.9 µM (inactive) | 11.8 µM (inactive) | 11.5 µM (inactive) | 11.2 | 18.9 µM (inactive) | 16.3 µM (inactive) | 3.71 µM (inactive) | 15.7 µM (inactive) | – | 11.1 µM (inactive) | 15.2 µM (inactive) | 14 µM (inactive) | 18.3 µM (inactive) | 13.1 µM (inactive) | 2.76 µM (inactive) | – | 2.38 µM (inactive)
O=C1NC(=O)C(=O)C(c2nc3ccccc3s2)C1=O | > 100 µM (inactive) | > 100 µM (inactive) | – | > 100 µM (inactive) | > 100 µM (inactive) | > 100 | > 100 µM (inactive) | > 100 µM (inactive) | > 100 µM (inactive) | > 100 µM (inactive) | > 100 µM (inactive) | > 100 µM (inactive) | > 100 µM (inactive) | > 100 µM (inactive) | – | > 100 µM (inactive) | > 100 µM (inactive) | – | > 100 µM (inactive)
